Here are results for two compounds from ChEMBL document CHEMBL1201862, “PubChem BioAssay data set” (2004).

In experiment [1] the target is Casein kinase I isoform gamma-1 (Homo sapiens, UniProt Q9HCP0). Type of experiment: functional.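 Note: measured as the CSNK1G1 member of a kinome profiling panel.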
In experiment [2] the target is Serine/threonine-protein kinase PAK 1 (Homo sapiens, UniProt Q13153). It counts as functional.
For experiment [3], the target named is Testis-specific serine/threonine-protein kinase 2 (Homo sapiens, UniProt Q96PF2). Type of experiment: functional.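 Note: part of the Navigating the Kinome panel, target entry STK22B.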
Experiment [4] concerns the target Serine/threonine-protein kinase PLK4 (Homo sapiens, UniProt O00444). It counts as functional.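 Note: PLK4 measured as one member of a kinome-wide kinase profiling panel.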
Experiment [5] has as its target Tyrosine-protein kinase FRK (Homo sapiens, UniProt P42685). It counts as functional.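 Note: FRK tested as one member of a kinome panel.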
Experiment [6] deals with Mitogen-activated protein kinase 12 (Homo sapiens, UniProt P53778). Type of experiment: functional.
Mitogen-activated protein kinase 12, sequence (P53778 whole entry, canonical isoform): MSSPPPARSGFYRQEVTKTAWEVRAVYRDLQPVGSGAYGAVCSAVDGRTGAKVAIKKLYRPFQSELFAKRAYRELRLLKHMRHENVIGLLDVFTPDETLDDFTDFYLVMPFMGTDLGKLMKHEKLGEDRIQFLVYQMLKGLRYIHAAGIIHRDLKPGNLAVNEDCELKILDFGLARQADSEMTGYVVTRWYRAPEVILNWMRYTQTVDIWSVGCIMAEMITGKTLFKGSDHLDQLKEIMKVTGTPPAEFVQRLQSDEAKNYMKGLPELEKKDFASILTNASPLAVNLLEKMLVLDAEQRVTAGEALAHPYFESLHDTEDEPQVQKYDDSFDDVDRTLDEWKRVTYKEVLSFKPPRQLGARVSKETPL
For experiment [7], the target named is Phosphorylase b kinase gamma catalytic chain, liver/testis isoform (Homo sapiens, UniProt P15735). It counts as functional.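 Note: PHKG2 measured as one member of a kinome-wide kinase panel.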
In experiment [8] the target is Cell division cycle 7-related protein kinase (Homo sapiens, UniProt O00311). It counts as functional.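 Note: value obtained from a kinome-wide kinase panel.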
Cell division cycle 7-related protein kinase, sequence (O00311 whole entry): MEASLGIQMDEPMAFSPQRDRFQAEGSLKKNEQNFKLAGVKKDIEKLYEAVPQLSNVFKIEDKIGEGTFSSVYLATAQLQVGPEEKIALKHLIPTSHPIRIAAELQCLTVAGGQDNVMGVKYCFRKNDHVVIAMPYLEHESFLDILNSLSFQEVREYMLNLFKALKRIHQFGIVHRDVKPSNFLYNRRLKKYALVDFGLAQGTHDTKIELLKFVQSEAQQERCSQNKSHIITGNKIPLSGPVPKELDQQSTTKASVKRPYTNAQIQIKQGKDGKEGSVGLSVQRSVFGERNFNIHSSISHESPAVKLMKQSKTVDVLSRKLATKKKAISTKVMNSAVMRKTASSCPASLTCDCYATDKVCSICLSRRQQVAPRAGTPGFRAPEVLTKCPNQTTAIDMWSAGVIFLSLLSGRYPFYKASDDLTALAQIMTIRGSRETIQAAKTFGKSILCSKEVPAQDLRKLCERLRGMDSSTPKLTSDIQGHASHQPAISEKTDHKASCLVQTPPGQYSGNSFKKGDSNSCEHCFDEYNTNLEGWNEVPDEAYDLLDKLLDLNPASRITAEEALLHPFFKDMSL
The target of experiment [9] is Calcium/calmodulin-dependent protein kinase type 1 (Homo sapiens, UniProt Q14012). It counts as functional.
Experiment [10] deals with Dual specificity tyrosine-phosphorylation-regulated kinase 4 (Homo sapiens, UniProt Q9NR20). Type of experiment: functional.
Dual specificity tyrosine-phosphorylation-regulated kinase 4, sequence (Q9NR20 whole entry): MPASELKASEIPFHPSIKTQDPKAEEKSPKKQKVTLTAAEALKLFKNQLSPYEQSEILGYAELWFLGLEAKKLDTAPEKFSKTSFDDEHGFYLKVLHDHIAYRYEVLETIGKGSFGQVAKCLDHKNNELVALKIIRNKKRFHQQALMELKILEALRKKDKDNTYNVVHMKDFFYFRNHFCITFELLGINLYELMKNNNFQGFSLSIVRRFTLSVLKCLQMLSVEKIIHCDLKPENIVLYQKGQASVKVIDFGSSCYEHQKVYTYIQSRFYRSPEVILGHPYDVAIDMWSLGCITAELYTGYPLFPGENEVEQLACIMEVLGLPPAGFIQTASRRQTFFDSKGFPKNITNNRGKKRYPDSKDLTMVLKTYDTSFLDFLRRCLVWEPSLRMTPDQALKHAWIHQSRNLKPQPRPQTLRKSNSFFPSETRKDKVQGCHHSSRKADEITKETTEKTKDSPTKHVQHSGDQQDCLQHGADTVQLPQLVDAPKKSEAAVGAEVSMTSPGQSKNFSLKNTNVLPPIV
In experiment [11] the target is Ribosomal protein S6 kinase alpha-3 (Homo sapiens, UniProt P51812). Type of experiment: functional.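 Note: measured within a kinome-wide profiling panel.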
Ribosomal protein S6 kinase alpha-3, sequence (P51812 whole entry): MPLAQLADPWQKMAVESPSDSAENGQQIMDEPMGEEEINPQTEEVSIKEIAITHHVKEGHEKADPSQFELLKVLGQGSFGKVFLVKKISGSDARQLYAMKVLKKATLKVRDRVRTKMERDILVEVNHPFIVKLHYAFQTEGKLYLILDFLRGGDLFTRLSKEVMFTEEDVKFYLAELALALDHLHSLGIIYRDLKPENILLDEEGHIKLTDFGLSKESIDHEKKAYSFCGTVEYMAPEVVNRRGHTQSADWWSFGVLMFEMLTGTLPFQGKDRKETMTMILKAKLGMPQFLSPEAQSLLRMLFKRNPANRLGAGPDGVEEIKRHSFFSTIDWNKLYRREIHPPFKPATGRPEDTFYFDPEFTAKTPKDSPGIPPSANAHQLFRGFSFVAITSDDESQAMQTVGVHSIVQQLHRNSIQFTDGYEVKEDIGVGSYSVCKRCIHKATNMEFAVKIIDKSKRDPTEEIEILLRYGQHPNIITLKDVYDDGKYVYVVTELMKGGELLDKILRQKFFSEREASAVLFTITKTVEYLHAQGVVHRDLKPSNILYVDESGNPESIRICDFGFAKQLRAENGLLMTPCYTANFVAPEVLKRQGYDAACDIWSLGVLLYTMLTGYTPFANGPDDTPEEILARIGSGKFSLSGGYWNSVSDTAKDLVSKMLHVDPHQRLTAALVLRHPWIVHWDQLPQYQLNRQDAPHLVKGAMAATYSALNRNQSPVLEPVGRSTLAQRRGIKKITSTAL
Experiment [12] deals with Receptor tyrosine-protein kinase erbB-2 (Homo sapiens, UniProt P04626). The experiment in a line: Navigating the Kinome. Panel member name: ERBB2. Type of experiment: functional.
For experiment [13], the target named is MAP kinase-interacting serine/threonine-protein kinase 2 (Homo sapiens, UniProt Q9HBH9). It counts as functional.
For experiment [14], the target named is Serine/threonine-protein kinase MRCK alpha (Homo sapiens, UniProt Q5VT25). Type of experiment: functional.
Serine/threonine-protein kinase MRCK alpha, sequence (Q5VT25 whole entry): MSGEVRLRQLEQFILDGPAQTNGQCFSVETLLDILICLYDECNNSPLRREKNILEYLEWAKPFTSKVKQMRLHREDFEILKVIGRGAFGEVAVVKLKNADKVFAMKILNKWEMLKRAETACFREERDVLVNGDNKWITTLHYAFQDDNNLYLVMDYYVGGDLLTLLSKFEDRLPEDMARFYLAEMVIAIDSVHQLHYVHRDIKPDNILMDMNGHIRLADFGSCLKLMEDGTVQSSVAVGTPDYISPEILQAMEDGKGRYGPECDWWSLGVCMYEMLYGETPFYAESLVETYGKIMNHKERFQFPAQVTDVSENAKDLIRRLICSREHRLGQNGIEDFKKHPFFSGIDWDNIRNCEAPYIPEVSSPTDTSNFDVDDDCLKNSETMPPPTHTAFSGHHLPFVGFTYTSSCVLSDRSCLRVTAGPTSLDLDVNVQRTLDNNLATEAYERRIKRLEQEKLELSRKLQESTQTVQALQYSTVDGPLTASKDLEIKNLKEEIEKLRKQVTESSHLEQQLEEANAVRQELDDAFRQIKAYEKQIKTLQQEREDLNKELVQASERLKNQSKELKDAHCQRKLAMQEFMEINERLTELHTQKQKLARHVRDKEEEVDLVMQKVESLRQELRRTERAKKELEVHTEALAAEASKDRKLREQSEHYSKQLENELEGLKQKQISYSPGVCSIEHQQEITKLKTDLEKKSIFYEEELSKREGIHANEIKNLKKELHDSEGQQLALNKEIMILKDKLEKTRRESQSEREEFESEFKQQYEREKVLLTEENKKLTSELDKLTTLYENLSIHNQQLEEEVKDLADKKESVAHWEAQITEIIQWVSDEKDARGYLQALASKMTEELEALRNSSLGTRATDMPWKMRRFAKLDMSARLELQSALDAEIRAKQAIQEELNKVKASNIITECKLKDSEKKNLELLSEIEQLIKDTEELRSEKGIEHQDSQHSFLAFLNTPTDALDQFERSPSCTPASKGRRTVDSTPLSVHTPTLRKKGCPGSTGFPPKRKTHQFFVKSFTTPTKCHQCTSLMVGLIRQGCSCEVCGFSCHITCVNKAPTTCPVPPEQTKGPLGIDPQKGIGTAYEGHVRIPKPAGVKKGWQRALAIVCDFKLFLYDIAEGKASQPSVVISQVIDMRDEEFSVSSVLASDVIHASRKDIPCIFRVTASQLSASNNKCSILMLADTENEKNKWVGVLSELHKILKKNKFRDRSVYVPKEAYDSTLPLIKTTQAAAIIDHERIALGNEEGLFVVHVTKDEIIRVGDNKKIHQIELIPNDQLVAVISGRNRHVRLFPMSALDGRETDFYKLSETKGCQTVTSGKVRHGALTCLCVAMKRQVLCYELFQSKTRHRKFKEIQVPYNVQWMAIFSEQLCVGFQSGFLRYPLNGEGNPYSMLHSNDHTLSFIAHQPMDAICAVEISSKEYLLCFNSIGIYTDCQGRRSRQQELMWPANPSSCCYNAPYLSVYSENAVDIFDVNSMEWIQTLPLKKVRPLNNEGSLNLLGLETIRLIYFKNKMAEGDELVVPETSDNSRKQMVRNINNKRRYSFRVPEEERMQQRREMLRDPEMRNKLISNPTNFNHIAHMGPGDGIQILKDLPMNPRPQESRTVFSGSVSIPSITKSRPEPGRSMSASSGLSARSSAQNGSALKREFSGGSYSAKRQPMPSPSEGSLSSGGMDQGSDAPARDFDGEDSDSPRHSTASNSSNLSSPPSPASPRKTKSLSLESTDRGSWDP
The target of experiment [15] is MAP kinase-activated protein kinase 3 (Homo sapiens, UniProt Q16644). Type of experiment: functional.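 Note: value comes from a kinome-wide profiling panel in which MAPKAPK3 is one of the panel members.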
In experiment [16] the target is Serine/threonine-protein kinase 3 (Homo sapiens, UniProt Q13188). Type of experiment: functional.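 Note: measured as one member of a kinome-wide kinase panel.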
Experiment [17] deals with Mitogen-activated protein kinase kinase kinase 20 (Homo sapiens, UniProt Q9NYL2). It counts as functional.
For experiment [18], the target named is T1, Histone-lysine N-methyltransferase NSD2 (Homo sapiens, UniProt O96028).
T1 sequence (O96028 whole entry): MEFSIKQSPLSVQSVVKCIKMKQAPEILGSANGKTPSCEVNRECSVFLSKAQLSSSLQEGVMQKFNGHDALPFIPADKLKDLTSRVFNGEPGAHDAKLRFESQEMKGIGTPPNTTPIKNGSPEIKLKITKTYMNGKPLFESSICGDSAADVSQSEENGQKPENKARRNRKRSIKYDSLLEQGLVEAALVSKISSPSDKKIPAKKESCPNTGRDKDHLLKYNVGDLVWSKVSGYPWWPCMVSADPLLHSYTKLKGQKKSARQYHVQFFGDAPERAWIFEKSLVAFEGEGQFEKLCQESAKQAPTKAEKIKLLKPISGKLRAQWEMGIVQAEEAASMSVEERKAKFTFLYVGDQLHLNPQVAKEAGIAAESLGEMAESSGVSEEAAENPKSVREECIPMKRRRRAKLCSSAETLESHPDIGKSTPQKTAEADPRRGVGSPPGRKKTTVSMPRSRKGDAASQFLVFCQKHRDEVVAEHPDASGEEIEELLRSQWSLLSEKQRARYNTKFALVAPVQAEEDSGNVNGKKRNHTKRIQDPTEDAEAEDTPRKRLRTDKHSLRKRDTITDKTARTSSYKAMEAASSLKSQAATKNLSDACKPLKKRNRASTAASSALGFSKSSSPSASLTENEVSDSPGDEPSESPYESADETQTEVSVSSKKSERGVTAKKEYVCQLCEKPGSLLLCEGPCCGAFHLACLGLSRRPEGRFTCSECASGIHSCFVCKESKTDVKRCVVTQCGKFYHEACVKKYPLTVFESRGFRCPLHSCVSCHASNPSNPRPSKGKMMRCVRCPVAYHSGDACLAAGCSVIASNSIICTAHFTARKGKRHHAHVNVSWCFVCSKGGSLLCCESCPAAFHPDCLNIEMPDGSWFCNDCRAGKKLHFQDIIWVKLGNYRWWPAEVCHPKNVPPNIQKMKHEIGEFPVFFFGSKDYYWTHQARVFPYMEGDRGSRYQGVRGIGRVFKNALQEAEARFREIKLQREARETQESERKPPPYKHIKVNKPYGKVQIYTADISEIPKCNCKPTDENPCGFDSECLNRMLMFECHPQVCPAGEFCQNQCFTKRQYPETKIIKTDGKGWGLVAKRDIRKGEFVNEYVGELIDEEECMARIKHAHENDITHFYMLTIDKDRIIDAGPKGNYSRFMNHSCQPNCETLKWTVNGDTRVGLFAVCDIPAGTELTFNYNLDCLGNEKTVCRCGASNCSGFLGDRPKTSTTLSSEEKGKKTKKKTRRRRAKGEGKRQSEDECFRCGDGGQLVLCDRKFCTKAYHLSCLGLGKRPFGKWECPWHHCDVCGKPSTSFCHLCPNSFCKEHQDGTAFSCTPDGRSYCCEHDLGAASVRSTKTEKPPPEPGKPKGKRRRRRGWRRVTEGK
Type of experiment: biochemical.

The target of a further experiment is T2, Caspase-3 (Homo sapiens, UniProt P42574).
T2 sequence (P42574 whole entry): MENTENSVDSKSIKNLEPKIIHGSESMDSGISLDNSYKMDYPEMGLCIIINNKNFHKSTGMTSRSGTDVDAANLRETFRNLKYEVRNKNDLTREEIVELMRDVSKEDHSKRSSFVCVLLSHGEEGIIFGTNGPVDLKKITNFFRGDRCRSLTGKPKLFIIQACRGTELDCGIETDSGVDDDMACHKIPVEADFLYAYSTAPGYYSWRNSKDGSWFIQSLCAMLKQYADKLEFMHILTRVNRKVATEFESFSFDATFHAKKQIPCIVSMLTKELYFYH
The experiment in a line: caspase-3 enzyme inhibitors, selectivity check, dose response, selectivity assay for caspase-6 allosteric inhibitor project, biochemical, fluorescence, cherry-picked samples (AID 743291).

The subject of another experiment is HEK293. Put plainly: HEK cell cytotoxicity by LDH release, dose response, cytotoxicity control for IDE activator project, fluorescence, HEK cells (AID 588440).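 Note: cytotoxicity by LDH release measuring loss of membrane integrity.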 Type of experiment: functional, cell-based. The conditions noted are these: Homo sapiens. In general terms: LDH in the medium is a marker of cell lysis.

SMILES strings stand for the structures. The source made the active and inactive calls. A value given as a limit tells only on which side of the number the result lay.

Serine/threonine-protein kinase PAK 1, sequence (Q13153 whole entry): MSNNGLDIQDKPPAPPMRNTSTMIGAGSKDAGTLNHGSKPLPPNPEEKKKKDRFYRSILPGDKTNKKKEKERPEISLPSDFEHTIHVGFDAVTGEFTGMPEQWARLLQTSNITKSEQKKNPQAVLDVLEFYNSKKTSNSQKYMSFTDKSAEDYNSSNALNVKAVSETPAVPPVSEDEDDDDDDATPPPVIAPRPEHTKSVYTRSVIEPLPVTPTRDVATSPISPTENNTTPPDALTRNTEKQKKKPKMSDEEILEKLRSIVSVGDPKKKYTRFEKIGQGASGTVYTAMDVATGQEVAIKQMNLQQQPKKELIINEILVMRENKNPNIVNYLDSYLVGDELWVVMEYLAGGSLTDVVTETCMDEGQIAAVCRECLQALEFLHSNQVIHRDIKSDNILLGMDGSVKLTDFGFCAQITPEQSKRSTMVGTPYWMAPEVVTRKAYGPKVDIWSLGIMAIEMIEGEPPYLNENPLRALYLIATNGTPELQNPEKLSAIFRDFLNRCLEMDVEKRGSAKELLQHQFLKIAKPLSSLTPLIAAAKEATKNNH
Casein kinase I isoform gamma-1, sequence (Q9HCP0 whole entry, canonical isoform): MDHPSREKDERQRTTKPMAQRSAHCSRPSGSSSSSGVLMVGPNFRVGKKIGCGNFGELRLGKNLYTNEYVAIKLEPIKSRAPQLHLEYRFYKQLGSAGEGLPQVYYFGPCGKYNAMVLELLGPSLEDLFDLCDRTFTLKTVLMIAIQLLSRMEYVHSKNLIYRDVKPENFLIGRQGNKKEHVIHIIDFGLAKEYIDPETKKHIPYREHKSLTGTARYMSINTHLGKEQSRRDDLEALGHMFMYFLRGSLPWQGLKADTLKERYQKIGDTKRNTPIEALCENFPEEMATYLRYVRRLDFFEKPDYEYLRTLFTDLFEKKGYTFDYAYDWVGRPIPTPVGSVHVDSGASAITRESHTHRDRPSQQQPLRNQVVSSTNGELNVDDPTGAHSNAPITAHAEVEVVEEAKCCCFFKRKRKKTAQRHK

In general, Ki refers to the equilibrium dissociation constant of an inhibitor or competing ligand from its target. The pKi is −log10 of the Ki, conventionally taken in molar units. High values mean a low Ki, low ones a high Ki. As for `OC1CCC(Nc2nc(Cl)cc(-c3c[nH]c4ncccc34)n2)CC1` (stereo unspecified), the Ki in experiment [1] was 316 nM (active); in experiment [2] it was 1260 nM (active); in experiment [3] it was > 1580 nM (inactive); in [4], > 3980 nM (inactive); in [5], 398 nM (active); in experiment [6], 158 nM (active). Further, the Ki was 200 nM (active) in experiment [7]; 0.158 nM (active) in experiment [8]; > 794 nM (inactive) in experiment [9]; 3160 nM (active) in [10]; 100 nM (active) in experiment [11]; > 1580 nM (inactive) in [12]. In addition, the Ki was 39.8 nM (active) in experiment [13]; 31.6 nM (active) in experiment [14]; > 10000 nM (inactive) in experiment [15]; 50.1 nM (active) in experiment [16]; > 7940 nM (inactive) in experiment [17]. Further, the pKi in [1] is listed as 6.5; in [2], 5.9; in [5], 6.4; in experiment [6], 6.8; in experiment [7], 6.7; in experiment [8], 9.8. The pKi in [10] was 5.5; in experiment [11] it was 7; in [13], 7.4; in [14] it was 7.5; in [16], 7.3.

As a reminder, the AC50 is the midpoint of the concentration-response curve, whichever way the signal moves. A word on the IC50: it is the concentration at which inhibition is half-maximal. With `CCN(CC)CCCC(C)n1c2nc(=O)[nH]c(=O)c-2nc2cc(Cl)ccc21` (stereo unspecified), the AC50 in [18] was 1180 nM (active); at Caspase-3, 561 nM (active). Besides, the IC50 in the experiment with HEK293 was > 89200 nM (inactive).
